According to ChEMBL document CHEMBL1156829 (Proc Natl Acad Sci U S A, 2008):

How the values were obtained:
Plasmodium falciparum [1] = assay: NOVARTIS: Inhibition of Plasmodium falciparum 3D7 (drug-susceptible) proliferation in erythrocyte-based infection assay; type: functional, organism-based; details: Plasmodium falciparum, 3D7
[2] = NOVARTIS: Cytotoxicity against human hepatocellular carcinoma cell line (Huh7); type: toxicity, cell-based, Huh-7; details: Huh7 cells (hepatocellular carcinoma cell line)
Plasmodium falciparum [3] = assay: NOVARTIS: Inhibition of Plasmodium falciparum W2 (drug-resistant) proliferation in erythrocyte-based infection assay; type: functional, organism-based; details: Plasmodium falciparum, W2; read-out: EC50

CN(C)CCCNc1ncc(C(=O)NCc2ccccc2)c(NCCc2ccccc2)n1
EC50 (Plasmodium falciparum [1]): 817 nM
CC50 [2]: > 10000 nM
EC50 (Plasmodium falciparum [3]): > 1250 nM

CCOC(=O)c1c(CNc2ccncc2)n(C)c2cc(Br)c(OC(C)=O)cc12
EC50 (Plasmodium falciparum [1]): 257 nM
CC50 [2]: > 100000 nM
EC50 (Plasmodium falciparum [3]): 310 nM

CC(C)(C)NC(=O)C(c1ccc(F)cc1)N(CCCN1CCOCC1)C(=O)c1ccc(-c2ccccc2)[nH]1 (configuration not stated)
EC50 (Plasmodium falciparum [1]): 1010 nM
CC50 [2]: > 10000 nM
EC50 (Plasmodium falciparum [3]): 562 nM

O=C(NC(CN1CCCC1)c1ccccc1)C1CCCCN1S(=O)(=O)c1ccc(Cl)cc1 (configuration not stated)
EC50 (Plasmodium falciparum [1]): 189 nM
CC50 [2]: 18600 nM
EC50 (Plasmodium falciparum [3]): 514 nM

Cc1cc(C)n(-c2ccc(NC(=O)C3CCN(Cc4ccncc4)CC3)cc2)n1
EC50 (Plasmodium falciparum [1]): 1280 nM
CC50 [2]: > 100000 nM
EC50 (Plasmodium falciparum [3]): 1480 nM

CC(=O)Nc1ccc(C(=O)N2CCC(Oc3cccc(CN(C)Cc4cccc5ccccc45)c3)CC2)cc1
EC50 (Plasmodium falciparum [1]): > 1250 nM
CC50 [2]: > 10000 nM
EC50 (Plasmodium falciparum [3]): 945 nM

Cc1ccc2oc(=O)c3cnn(CC(=O)Nc4ccc(F)cc4Cl)c3c2c1
EC50 (Plasmodium falciparum [1]): > 1150 nM
CC50 [2]: > 10000 nM
EC50 (Plasmodium falciparum [3]): > 1250 nM

c1ccc(CNc2nc(Nc3ccccc3)nc3ccccc23)cc1
EC50 (Plasmodium falciparum [1]): 158 nM
CC50 [2]: 13500 nM
EC50 (Plasmodium falciparum [3]): 93.4 nM

CC(C)OC(=O)c1cccnc1SCC(=O)Nc1ccc(C(F)(F)F)cc1Cl
EC50 (Plasmodium falciparum [1]): 5540 nM
CC50 [2]: > 100000 nM
EC50 (Plasmodium falciparum [3]): 1500 nM

CC1CCC2C(C)C(=O)OC3OC(C)C4CC1C32OO4 (configuration not stated)
EC50 (Plasmodium falciparum [1]): 19.1 nM
CC50 [2]: > 10000 nM
EC50 (Plasmodium falciparum [3]): 7.62 nM

COc1ccc(OC)c(-c2ccc(O)c(CNCC3(N4CCCCC4)CCCCC3)c2)c1
EC50 (Plasmodium falciparum [1]): 43.7 nM
CC50 [2]: 38000 nM
EC50 (Plasmodium falciparum [3]): 11.3 nM

O=c1c2c([nH]c3ccccc13)CCCCCC2
EC50 (Plasmodium falciparum [1]): 2940 nM
CC50 [2]: > 100000 nM
EC50 (Plasmodium falciparum [3]): 2670 nM

CCOC(=O)c1c(C)[n+](-c2ccc(C)cc2)c(CC)c2cc(OC)c(OC)cc12
EC50 (Plasmodium falciparum [1]): 702 nM
CC50 [2]: > 94000 nM
EC50 (Plasmodium falciparum [3]): 683 nM

COc1ccc(CCNc2nc(NCCCn3ccnc3)ncc2C(=O)NCC(C)C)cc1OC
EC50 (Plasmodium falciparum [1]): 563 nM
CC50 [2]: > 6780 nM
EC50 (Plasmodium falciparum [3]): > 1250 nM

C=CC1CN2CCC1CC2[C@H](c1ccnc2ccccc12)S(=O)(=O)O (some centres not stated)
EC50 (Plasmodium falciparum [1]): 152 nM
CC50 [2]: > 10000 nM
EC50 (Plasmodium falciparum [3]): 97.1 nM

N#Cc1c(-c2ccccc2)cc(N2CCN(Cc3ccc(Cl)cc3)CC2)n2c1nc1ccccc12
EC50 (Plasmodium falciparum [1]): 1120 nM
CC50 [2]: > 100000 nM
EC50 (Plasmodium falciparum [3]): 1710 nM

COc1ccccc1N1C(=N)SC(=Cc2ccc(OCc3ccccc3F)cc2)C1=O
EC50 (Plasmodium falciparum [1]): 422 nM
CC50 [2]: > 100000 nM
EC50 (Plasmodium falciparum [3]): 1080 nM

Cc1ccc(CN2CCN(Cc3cn(C(C)C)c4ccccc34)CC2CCO)o1 (configuration not stated)
EC50 (Plasmodium falciparum [1]): > 12500 nM
CC50 [2]: > 100000 nM
EC50 (Plasmodium falciparum [3]): 4210 nM

O=C1CC(c2ccccc2)CC2=C1C(c1ccccc1[N+](=O)[O-])Nc1ccccc1N2 (configuration not stated)
EC50 (Plasmodium falciparum [1]): 3470 nM
CC50 [2]: > 100000 nM
EC50 (Plasmodium falciparum [3]): 1110 nM

O=C(O)c1ccc2c(c1)N=CN(C1CCCCC1)C2
EC50 (Plasmodium falciparum [1]): 268 nM
CC50 [2]: > 10000 nM
EC50 (Plasmodium falciparum [3]): 98.3 nM

CCCCCCC(=O)Oc1ccccc1-c1nc2ccccn2c1NC(C)(C)CC(C)(C)C
EC50 (Plasmodium falciparum [1]): 1060 nM
CC50 [2]: > 10000 nM
EC50 (Plasmodium falciparum [3]): 78.3 nM

N#C/C(=C\c1ccccc1OCc1ccc(Cl)cc1Cl)c1nc2ccccc2[nH]1
EC50 (Plasmodium falciparum [1]): 348 nM
CC50 [2]: > 10000 nM
EC50 (Plasmodium falciparum [3]): > 772 nM

COc1cc(NC(C)CCCN(Cc2ccc(F)cc2)C(=O)C(c2ccccc2)c2ccccc2)c2ncccc2c1 (configuration not stated)
EC50 (Plasmodium falciparum [1]): > 1090 nM
CC50 [2]: > 3470 nM
EC50 (Plasmodium falciparum [3]): < 0.572 nM

CN(C)c1ccc2c(c1)Sc1cc(N(C)C)ccc1N2C(=O)c1ccccc1
EC50 (Plasmodium falciparum [1]): 218 nM
CC50 [2]: > 100000 nM
EC50 (Plasmodium falciparum [3]): 232 nM

CSC1=NC(=Nc2c(C)cccc2C)C2(CCC(C(C)(C)C)CC2)N1c1ccc(Cl)cc1 (configuration not stated)
EC50 (Plasmodium falciparum [1]): 1480 nM
CC50 [2]: > 67300 nM
EC50 (Plasmodium falciparum [3]): > 10000 nM

O=S(=O)(c1ccc(Cl)cc1)N1CCN(C(=S)NCc2ccco2)CC1
EC50 (Plasmodium falciparum [1]): 973 nM
CC50 [2]: > 100000 nM
EC50 (Plasmodium falciparum [3]): 524 nM

O=C(O)CSC(C(=O)Nc1ccc(Cl)cc1)c1ccccc1 (configuration not stated)
EC50 (Plasmodium falciparum [1]): > 1620 nM
CC50 [2]: > 10000 nM
EC50 (Plasmodium falciparum [3]): > 1360 nM

Cc1ccc(N2C(=O)C3C(C2=O)C2(c4ccccc4)C(=O)C3(c3ccccc3)C(c3ccccc3)=C2c2ccccc2)cc1[N+](=O)[O-] (configuration not stated)
EC50 (Plasmodium falciparum [1]): 822 nM
CC50 [2]: > 100000 nM
EC50 (Plasmodium falciparum [3]): > 12500 nM

CCn1c(C)cc(/C=C2\C(=O)NC(=O)N(c3cccc(Cl)c3)C2=O)c1C
EC50 (Plasmodium falciparum [1]): > 674 nM
CC50 [2]: > 10000 nM
EC50 (Plasmodium falciparum [3]): 679 nM

Brc1ccc(C=Cc2cc[n+](Cc3ccccc3)cc2)cc1
EC50 (Plasmodium falciparum [1]): 139 nM
CC50 [2]: 47300 nM
EC50 (Plasmodium falciparum [3]): 103 nM

COc1ccc(C(NC(=O)COc2ccccc2)c2cc(Cl)c3cccnc3c2O)cc1OC (configuration not stated)
EC50 (Plasmodium falciparum [1]): 4660 nM
CC50 [2]: 18500 nM
EC50 (Plasmodium falciparum [3]): 3080 nM

CC(C)CC(=O)NCCCCNc1ccnc2cc(Cl)ccc12
EC50 (Plasmodium falciparum [1]): 620 nM
CC50 [2]: > 10000 nM
EC50 (Plasmodium falciparum [3]): 430 nM

COc1cc(-c2nc(-c3ccc(C)c(C)c3)c(-c3ccc(C)c(C)c3)[nH]2)cc(OC)c1O
EC50 (Plasmodium falciparum [1]): 93 nM
CC50 [2]: 61200 nM
EC50 (Plasmodium falciparum [3]): 132 nM

Cc1ccc2c(Cl)c(C(=O)N3CC(C)OC(C)C3)sc2c1 (configuration not stated)
EC50 (Plasmodium falciparum [1]): 102 nM
CC50 [2]: > 100000 nM
EC50 (Plasmodium falciparum [3]): 72 nM
